Data on 1 molecule can be found in paper PMC10821196, “Analysis of Marrubiin in Marrubium alysson L. Extract Using Advanced HPTLC: Chemical Profiling, Acetylcholinesterase Inhibitory Activity, and Molecular Docking” (Metabolites, 2023).

The assay concerns the target T1, acetylcholinesterase (AChE) (Electrophorus electricus, UniProt O42275).
T1 construct: commercial native enzyme from electric eel (Sigma-Aldrich)
In words: Ellman assay, […] nm. It is filed as biochemical.

T1 sequence (O42275 24-633): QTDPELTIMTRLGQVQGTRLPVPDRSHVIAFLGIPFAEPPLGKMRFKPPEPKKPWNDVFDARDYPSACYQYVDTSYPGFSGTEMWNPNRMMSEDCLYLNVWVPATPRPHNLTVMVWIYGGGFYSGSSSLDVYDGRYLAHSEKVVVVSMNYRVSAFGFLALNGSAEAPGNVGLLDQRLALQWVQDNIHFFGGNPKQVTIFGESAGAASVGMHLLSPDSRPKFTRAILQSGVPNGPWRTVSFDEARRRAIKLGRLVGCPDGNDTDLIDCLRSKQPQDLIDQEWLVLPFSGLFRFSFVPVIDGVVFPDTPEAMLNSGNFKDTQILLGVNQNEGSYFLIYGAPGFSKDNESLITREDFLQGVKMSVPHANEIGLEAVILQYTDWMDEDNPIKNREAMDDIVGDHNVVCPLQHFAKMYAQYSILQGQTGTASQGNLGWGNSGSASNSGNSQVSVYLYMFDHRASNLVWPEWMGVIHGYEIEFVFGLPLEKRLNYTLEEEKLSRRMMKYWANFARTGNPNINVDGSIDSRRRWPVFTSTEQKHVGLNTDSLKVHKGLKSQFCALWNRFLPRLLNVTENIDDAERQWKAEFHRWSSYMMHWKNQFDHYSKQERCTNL

`C[C@@H]1C[C@H]2OC(=O)[C@@]3(C)CCC[C@@](C)([C@@H]23)[C@@]1(O)CCc1ccoc1` [marrubiin] displayed an IC50 of 52.7 ± 5.66 µM.
